Test results published in publication PMC5001167 (Journal of medicinal chemistry, 2016).
“Also recorded” adds a separate entry of the source.

Columns and labels:
[1] = test system: dogs; conditions: cited from earlier work
[2] = biological target: T1, 5HT1A (Homo sapiens, UniProt P08908); test: 5HT1A [35S]GTPγS binding functional assay; format: biochemical
T1 sequence (P08908 1-422): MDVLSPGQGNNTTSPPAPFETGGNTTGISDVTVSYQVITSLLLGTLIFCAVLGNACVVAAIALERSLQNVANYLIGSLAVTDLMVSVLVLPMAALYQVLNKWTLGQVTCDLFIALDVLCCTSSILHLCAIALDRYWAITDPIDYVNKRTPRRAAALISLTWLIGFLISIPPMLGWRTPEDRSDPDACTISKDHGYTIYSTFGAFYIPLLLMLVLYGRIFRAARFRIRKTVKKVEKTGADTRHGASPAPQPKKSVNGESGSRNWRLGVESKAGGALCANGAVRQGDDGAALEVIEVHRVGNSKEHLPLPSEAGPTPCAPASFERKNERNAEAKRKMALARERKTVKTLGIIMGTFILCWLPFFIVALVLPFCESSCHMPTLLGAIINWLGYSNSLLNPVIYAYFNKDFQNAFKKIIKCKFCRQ

[3] = test system: C57BL/6J mice; test: Locomotor activity, basal and oxycodone-induced, open-field chambers
[4] = test system: Long-Evans rats; test: Oxycodone-induced conditioned place preference; format: in vivo, rat
[5] = biological target: D2R; conditions: read-out: D2R Ki; eticlopride; cited from earlier work
[6] = cited from earlier work
[7] = biological target: human D2LR (Homo sapiens, UniProt P14416); format: binding; conditions: read-out: D2LR Ki ± S.E.M.; full-length analogues, Table 2; HEK 293
[8] = biological target: T2, human D4.4R (Homo sapiens, UniProt P21917); format: binding; conditions: read-out: D4.4R Ki ± S.E.M.; full-length analogues, Table 2; HEK 293
T2 sequence (P21917 1-419): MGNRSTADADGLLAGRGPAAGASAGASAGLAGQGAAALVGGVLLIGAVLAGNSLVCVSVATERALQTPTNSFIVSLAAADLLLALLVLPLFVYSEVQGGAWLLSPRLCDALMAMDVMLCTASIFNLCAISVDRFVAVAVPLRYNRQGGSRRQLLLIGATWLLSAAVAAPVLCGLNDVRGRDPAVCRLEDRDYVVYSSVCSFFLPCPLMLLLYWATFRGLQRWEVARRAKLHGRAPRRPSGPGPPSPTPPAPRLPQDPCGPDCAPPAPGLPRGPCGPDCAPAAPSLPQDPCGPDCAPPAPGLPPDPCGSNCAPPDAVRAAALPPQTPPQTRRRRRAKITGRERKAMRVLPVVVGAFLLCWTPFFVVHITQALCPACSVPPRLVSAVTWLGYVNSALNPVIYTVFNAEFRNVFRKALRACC

[9] = biological target: human D3R (Homo sapiens, UniProt P35462); format: binding; conditions: Table 2
[10] = biological target: mu opioid receptor (Homo sapiens, UniProt P35372); test: Opioid receptor binding at 10 μM; conditions: at a concentration of 10 μM
[11] = biological target: kappa opioid receptor (Homo sapiens, UniProt P41145); test: Opioid receptor binding at 10 μM; conditions: at a concentration of 10 μM
[12] = biological target: delta opioid receptor (Homo sapiens, UniProt P41143); test: Opioid receptor binding at 10 μM; conditions: at a concentration of 10 μM
Chain of delta opioid receptor (P41143 whole entry): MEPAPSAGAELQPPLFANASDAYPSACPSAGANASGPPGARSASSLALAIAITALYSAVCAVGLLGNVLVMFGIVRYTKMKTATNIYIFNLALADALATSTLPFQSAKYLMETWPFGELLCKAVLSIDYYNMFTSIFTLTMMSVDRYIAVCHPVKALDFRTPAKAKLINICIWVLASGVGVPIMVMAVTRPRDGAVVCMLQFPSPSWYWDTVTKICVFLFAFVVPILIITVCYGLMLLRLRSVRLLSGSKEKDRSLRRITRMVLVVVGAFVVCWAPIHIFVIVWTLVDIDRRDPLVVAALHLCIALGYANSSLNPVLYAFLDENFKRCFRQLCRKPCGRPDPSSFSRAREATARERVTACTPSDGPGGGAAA

Chain of human D3R (P35462 whole entry): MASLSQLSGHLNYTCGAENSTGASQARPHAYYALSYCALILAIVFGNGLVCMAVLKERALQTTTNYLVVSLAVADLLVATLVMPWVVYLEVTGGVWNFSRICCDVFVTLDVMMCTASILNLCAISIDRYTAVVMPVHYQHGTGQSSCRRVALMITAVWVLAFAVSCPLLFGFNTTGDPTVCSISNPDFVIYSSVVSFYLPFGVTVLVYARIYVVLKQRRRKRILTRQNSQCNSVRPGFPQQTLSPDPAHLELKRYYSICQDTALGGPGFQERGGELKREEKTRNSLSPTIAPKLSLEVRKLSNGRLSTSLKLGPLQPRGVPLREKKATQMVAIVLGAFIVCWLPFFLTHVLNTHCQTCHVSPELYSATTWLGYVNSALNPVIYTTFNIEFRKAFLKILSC
Chain of kappa opioid receptor (P41145 whole entry): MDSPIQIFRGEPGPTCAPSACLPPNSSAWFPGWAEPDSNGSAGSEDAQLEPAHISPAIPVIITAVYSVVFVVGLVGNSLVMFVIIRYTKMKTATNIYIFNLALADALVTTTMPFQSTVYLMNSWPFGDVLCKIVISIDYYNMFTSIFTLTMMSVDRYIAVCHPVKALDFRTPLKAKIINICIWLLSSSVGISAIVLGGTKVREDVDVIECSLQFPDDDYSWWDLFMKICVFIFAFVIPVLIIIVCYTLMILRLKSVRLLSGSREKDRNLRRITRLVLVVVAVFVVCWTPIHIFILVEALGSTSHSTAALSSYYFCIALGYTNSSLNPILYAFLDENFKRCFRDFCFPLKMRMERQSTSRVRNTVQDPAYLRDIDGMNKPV
Chain of human D2LR (P14416 whole entry): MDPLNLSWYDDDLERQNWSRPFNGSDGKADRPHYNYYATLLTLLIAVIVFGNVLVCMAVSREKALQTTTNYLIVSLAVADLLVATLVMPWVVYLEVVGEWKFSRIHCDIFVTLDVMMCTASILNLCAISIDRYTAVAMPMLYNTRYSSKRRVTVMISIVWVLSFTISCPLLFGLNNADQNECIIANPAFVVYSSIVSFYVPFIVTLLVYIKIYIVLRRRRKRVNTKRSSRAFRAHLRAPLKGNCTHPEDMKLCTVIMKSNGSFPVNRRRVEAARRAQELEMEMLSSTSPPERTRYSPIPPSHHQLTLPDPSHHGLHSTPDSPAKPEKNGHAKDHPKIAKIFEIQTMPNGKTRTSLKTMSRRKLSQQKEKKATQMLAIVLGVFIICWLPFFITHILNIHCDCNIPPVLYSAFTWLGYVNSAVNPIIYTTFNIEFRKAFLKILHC
Chain of mu opioid receptor (P35372 whole entry): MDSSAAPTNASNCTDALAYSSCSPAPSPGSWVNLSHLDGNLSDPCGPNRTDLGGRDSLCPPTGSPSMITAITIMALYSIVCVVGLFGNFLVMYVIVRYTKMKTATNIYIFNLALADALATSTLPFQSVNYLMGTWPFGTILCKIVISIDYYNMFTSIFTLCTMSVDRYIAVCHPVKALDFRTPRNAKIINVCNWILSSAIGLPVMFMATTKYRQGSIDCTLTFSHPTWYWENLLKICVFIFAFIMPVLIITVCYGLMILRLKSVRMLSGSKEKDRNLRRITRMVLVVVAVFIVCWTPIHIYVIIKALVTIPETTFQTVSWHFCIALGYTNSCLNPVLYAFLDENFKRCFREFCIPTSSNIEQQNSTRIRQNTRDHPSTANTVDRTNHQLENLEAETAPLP

## Cc1ncoc1-c1nnc(SCCCN2C[C@@H]3C[C@]3(c3ccc(C(F)(F)F)cc3F)C2)n1C [GSK598,809]
[1]
  blood pressure effect in the presence of cocaine: significant hypertension

## CCc1cccc(N2CCN(CCCCNC(=O)c3cc4ccccc4o3)CC2)c1Cl [Compound 24, N-(4-(4-(2-Chloro-3-ethylphenyl)piperazin-1-yl)butyl)benzofuran-2-carboxamide]
[2]
  functional profile at 5HT1A: functional agonists

## COc1ccc2c3c1O[C@H]1C(=O)CC[C@@]4(O)[C@@H](C2)N(C)CC[C@]314 [oxycodone, reference compound]
[3]; mice, oxycodone 4 mg/kg i.p.
  effect of oxycodone on locomotor activity: significant increases in locomotor activity
[4]; rats, oxycodone 3 mg/kg i.p. versus saline conditioning
  CPP produced by oxycodone: produced significant CPP

## CCc1cc(Cl)c(OC)c(C(=O)NC[C@@H]2CCCN2CC)c1O [Eticlopride]
[5]
  Ki: 0.086 nM

## O=C(NCC[C@@H](O)CN1CCN(c2cccc(Cl)c2Cl)CC1)c1cc2ccccc2[nH]1 [R-PG648]
[6]
  metabolic stability: metabolic instability

## CCc1cccc(N2CCN(CCCCNC(=O)c3cc4ccccc4[nH]3)CC2)c1Cl [Compound 22, N-(4-(4-(2-Chloro-3-ethylphenyl)piperazin-1-yl)butyl)-1H-indole-2-carboxamide]
[2]
  functional profile at 5HT1A: functional agonists

## N-(4-(4-(2-Chloro-3-ethylphenyl)piperazin-1-yl)butyl)-6-methylimidazo[2,1-b]thiazole-5-carboxamide [Compound 28]
[7]
  Ki: 4.65 ± 1.24 nM
[8]
  Ki: 143 ± 3.18 nM
[9]; binding selectivity, ratio of Ki values (fold)
  D2R/D3R: 5
[9]; read-out: D3R Ki ± S.E.M., full-length analogues, HEK 293
  Ki: 0.941 ± 0.13 nM

## CCc1cc(Cl)c(OC)c(N2CCN(CC(O)CCNC(=O)c3cc4ccccc4[nH]3)CC2)c1 (stereo not shown) [Compound 19, N-(4-(4-(3-Chloro-5-ethyl-2-methoxyphenyl)piperazin-1-yl)-3-hydroxybutyl)-1H-indole-2-carboxamide]
[10]
  binding to mu opioid receptor: does not bind
[11]
  binding to kappa opioid receptor: does not bind
[3]; mice, 5, 15 mg/kg i.p. 15 min before oxycodone 4 mg/kg, day 2
  effect on acute oxycodone-induced hyperactivity: attenuated; also recorded: dose-dependently inhibited
[3]; mice, 5, 15 mg/kg i.p. alone, day 1
  effect on basal locomotor activity: no effect on locomotion
[3]; mice, 5, 15 mg/kg i.p. daily before oxycodone 4 mg/kg, day 2-day 6
  effect on acquisition of repeated oxycodone-induced locomotor sensitization: dose-dependently blocked
[3]; mice, day 9, oxycodone 4 mg/kg challenge without pretreatment
  effect on expression of oxycodone prime-induced locomotor sensitization after 2 days of withdrawal: blocked; also recorded: long-lasting inhibition
[12]
  binding to delta opioid receptor: does not bind
[4]; rats, 15 mg/kg i.p., p<0.05 compared to (Vehicle + oxycodone) group
  effect on oxycodone-induced CPP at 15 mg/kg: significant reduction
[4]; rats, 15 mg/kg i.p., paired with saline, 15 mg/kg
  CPP produced by compound alone: did not produce CPP; also recorded: did not produce significant place preference
[4]; rats, 5, 15 mg/kg i.p. 15 min before each oxycodone injection (3 mg/kg i.p.)
  effect on oxycodone-induced CPP: dose-dependently attenuated; also recorded: dose-dependently blocked

## CCc1cccc(N2CCN(CC(O)CCNC(=O)c3cc4ccccc4o3)CC2)c1Cl (stereo not shown) [Compound 25, N-(4-(4-(2-Chloro-3-ethylphenyl)piperazin-1-yl)-3-hydroxybutyl)benzofuran-2-carboxamide]
[2]
  functional profile at 5HT1A: functional agonists
